Reference: ChEMBL document CHEMBL1201862, “PubChem BioAssay data set” (2004)
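Following 48 hours of exposure in 96-well plates, responses at five concentrations were used to interpolate endpoints linearly. GI50 marks 50% less growth.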 Activity calls are given as the source filed them. No stated cut-off is given here; in the data, active = GI50 up to about 1.1 µM and inactive = higher. Where a SMILES comes first, the peptide text is derived from it. The star is where a group is joined. Cbz = O=C(OCc1ccccc1)*; NHNH2 = NN*

Legend:
Experiment in all cases: inhibition of tumour cell growth, NCI panel, 48 h
LOX IMVI = system: LOX IMVI
SN12C = system: SN12C
HT-29 = system: HT-29
SK-OV-3 = system: SK-OV-3
A549 = system: A549
M14 = system: M14
EKVX = system: EKVX
OVCAR-8 = system: OVCAR-8
OVCAR-4 = system: OVCAR-4
TK-10 = system: TK-10
UACC-257 = system: UACC-257
SNB-19 = system: SNB-19
CAKI-1 = system: CAKI-1
SK-MEL-2 = system: SK-MEL-2
NCI-H23 = system: NCI-H23
HOP-62 = system: HOP-62
OVCAR-5 = system: OVCAR-5
SR = system: SR

Measured: GI50

Nc1ncnc2c1ncn2CC(O)CO (stereo not drawn)
inactive: LOX IMVI > 100 µM | SN12C > 100 µM | HT-29 > 100 µM | SK-OV-3 > 100 µM | A549 > 100 µM | M14 > 100 µM | EKVX > 100 µM | OVCAR-8 > 100 µM | OVCAR-4 > 100 µM | TK-10 > 100 µM | UACC-257 > 100 µM | SNB-19 > 100 µM | CAKI-1 > 100 µM | SK-MEL-2 > 100 µM | NCI-H23 > 100 µM

C1=CC=C2NCCOCC/N=C3/C=CC=CC=C3NCCOCC/N=C\2C=C1
inactive: LOX IMVI 29 µM | SN12C 77.6 µM | HT-29 15.7 µM | SK-OV-3 > 100 µM | A549 63.7 µM | M14 17.8 µM | EKVX > 100 µM | OVCAR-8 57.4 µM | OVCAR-4 59.2 µM | TK-10 > 100 µM | UACC-257 20 µM | SNB-19 > 100 µM | CAKI-1 > 100 µM | HOP-62 > 100 µM | SK-MEL-2 69 µM | NCI-H23 > 100 µM | OVCAR-5 > 100 µM

Cc1ccc(NS(=O)(=O)c2cc(C(C)(C)C)ccc2OCCOCCOCCOc2ccc(C(C)(C)C)cc2S(=O)(=O)Nc2ccc(C)cc2)cc1
inactive: LOX IMVI > 100 µM | SN12C > 100 µM | HT-29 > 100 µM | SK-OV-3 > 100 µM | A549 > 100 µM | M14 > 100 µM | EKVX > 100 µM | OVCAR-8 > 100 µM | OVCAR-4 > 100 µM | TK-10 > 100 µM | UACC-257 > 100 µM | SNB-19 > 100 µM | CAKI-1 > 100 µM | HOP-62 > 100 µM | SK-MEL-2 > 100 µM | NCI-H23 > 100 µM | OVCAR-5 > 100 µM

COC1=CC23C=CC1[C@@H](c1ccccc1)C2=C(C)C(=O)N3C(=O)NC1CCCCC1 (stereo partly drawn)
inactive: LOX IMVI 17 µM | SN12C > 10 µM | HT-29 19.7 µM | SK-OV-3 39 µM | A549 24.7 µM | M14 19 µM | EKVX 28.7 µM | OVCAR-8 25.3 µM | TK-10 26.7 µM | UACC-257 26.6 µM | SR 20.2 µM | SNB-19 31.8 µM | CAKI-1 16.9 µM | HOP-62 21.5 µM | SK-MEL-2 17.5 µM | NCI-H23 18.5 µM | OVCAR-5 23.7 µM

CON1C(=O)C2(CCCCC2)C(=O)C12C=CC(C)CC2 (stereo not drawn)
inactive: LOX IMVI > 100 µM | SN12C > 100 µM | HT-29 62.5 µM | SK-OV-3 > 100 µM | A549 > 100 µM | M14 > 100 µM | EKVX 48.2 µM | OVCAR-8 > 100 µM | TK-10 > 100 µM | UACC-257 69.8 µM | SNB-19 > 100 µM | CAKI-1 > 100 µM | HOP-62 > 100 µM | SK-MEL-2 > 100 µM | NCI-H23 > 100 µM

S=c1nc2c(c[nH]1)C1c3ccccc3C2c2ccccc21
inactive: LOX IMVI > 100 µM | SN12C > 100 µM | HT-29 > 10 µM | A549 68.9 µM | M14 79.8 µM | EKVX 38.5 µM | OVCAR-8 > 100 µM | OVCAR-4 39.2 µM | TK-10 > 100 µM | SR 34 µM | SNB-19 82.4 µM | HOP-62 > 100 µM | SK-MEL-2 57.7 µM | NCI-H23 > 100 µM | OVCAR-5 > 100 µM

COc1ccc(S(=O)(=O)N/N=C/c2cc(I)cc([N+](=O)[O-])c2O)cc1OC
inactive: LOX IMVI 43.3 µM | SN12C 32.8 µM | HT-29 46.3 µM | SK-OV-3 32.4 µM | A549 > 100 µM | M14 36.1 µM | EKVX 44.5 µM | OVCAR-8 53.2 µM | OVCAR-4 25.2 µM | TK-10 62.1 µM | UACC-257 39 µM | SNB-19 26.3 µM | CAKI-1 31.6 µM | SK-MEL-2 22.5 µM | OVCAR-5 > 100 µM

CC(C)(C)C1CCC2(CC1)c1[nH]c3ccccc3c1C1(CCC(C(C)(C)C)CC1)c1[nH]c3ccccc3c12 (stereo not drawn)
inactive: LOX IMVI > 100 µM | SN12C > 100 µM | HT-29 > 100 µM | SK-OV-3 > 100 µM | A549 > 100 µM | M14 > 100 µM | EKVX > 100 µM | OVCAR-8 > 100 µM | OVCAR-4 > 100 µM | TK-10 > 100 µM | UACC-257 > 100 µM | SNB-19 > 100 µM | CAKI-1 > 100 µM | HOP-62 > 100 µM | SK-MEL-2 > 100 µM | NCI-H23 > 100 µM | OVCAR-5 > 100 µM

COC(=O)C1=C(c2ccc(OC)c(OC)c2)OC(c2cc(OC)c(OC)c(OC)c2)C1 (stereo not drawn)
inactive: LOX IMVI 99.5 µM | SN12C 34.3 µM | HT-29 > 100 µM | SK-OV-3 15.3 µM | A549 > 100 µM | M14 65.6 µM | EKVX > 100 µM | OVCAR-8 25.9 µM | OVCAR-4 16.1 µM | TK-10 39.2 µM | UACC-257 > 100 µM | CAKI-1 60.3 µM | HOP-62 19.7 µM | SK-MEL-2 20.1 µM | NCI-H23 99.3 µM | OVCAR-5 > 100 µM

COc1ccc(N2C(=O)C(C#N)=C(SC)C(C#N)C2=O)cc1 (stereo not drawn)
inactive: LOX IMVI > 100 µM | SN12C > 100 µM | HT-29 > 100 µM | SK-OV-3 > 100 µM | A549 > 100 µM | M14 > 100 µM | EKVX > 100 µM | OVCAR-8 > 100 µM | OVCAR-4 > 100 µM | TK-10 > 100 µM | UACC-257 > 100 µM | SNB-19 66.5 µM | CAKI-1 > 100 µM | HOP-62 > 100 µM | SK-MEL-2 > 100 µM | OVCAR-5 > 100 µM

Oc1cc(-c2c[nH]c3ccccc23)nc2cc3c(cc12)OCO3
inactive: LOX IMVI > 100 µM | SN12C > 100 µM | HT-29 > 100 µM | A549 > 100 µM | M14 > 100 µM | EKVX > 100 µM | OVCAR-8 > 10 µM | OVCAR-4 3.79 µM | TK-10 > 100 µM | UACC-257 > 100 µM | SR > 100 µM | SNB-19 > 100 µM | HOP-62 84.3 µM | SK-MEL-2 > 100 µM | NCI-H23 > 100 µM

CCOC(=O)CCC(NC(=O)OCc1ccccc1)C(=O)NC(CCC(=O)OCC)C(=O)NN (stereo not drawn) (Cbz-Glu(OEt)-Glu(OEt)-NHNH2; configuration not given here)
inactive: SN12C > 100 µM | HT-29 > 100 µM | A549 > 100 µM | M14 > 100 µM | EKVX > 100 µM | OVCAR-8 > 100 µM | TK-10 > 100 µM | UACC-257 > 100 µM | SR > 100 µM | SNB-19 > 100 µM | HOP-62 > 100 µM | SK-MEL-2 > 100 µM | OVCAR-5 > 100 µM
